Laboratory results as given in US20230391772A1, “METHODS AND COMPOSITIONS FOR TARGETED PROTEIN DEGRADATION” (Ranok Therapeutics (Hangzhou) Co. Ltd., priority 2020, published 2023).

Tests used:
HSP90a protein = biological target: T1, HSP90a protein (Homo sapiens, UniProt P07900); assay: HSP90α-binding fluorescent polarization (FP) assay, BODIPY-labeled RNK04010 probe; settings: FP competition with RNK04010 (BODIPY-labeled), 5 nM, 300 min at 25° C.
T1 construct: purchased BPS Bioscience 50298
Summary of the method: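 Compounds (20 μM down to 5.2 nM, 2.5-fold steps) compete with a 5 nM fluorescent tracer for N-terminal HSP90a, measured by fluorescence polarization. With FITC-geldanamycin, plates sit 120 min at 25 °C. With BODIPY-RNK04010, they sit 300 min at 25 °C.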

[1] = test system: MIA PaCa-2 human pancreatic carcinoma; assay: MIA PaCa-2 CCK-8 proliferation assay; assay type: cell-based; settings: Homo sapiens, MIA PaCa-2, 72 h, MIA PaCa-2 cells
Summary of the method: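 Proliferation of mutant-KRAS(G12C) cells (2 copies in MIA PaCa-2, single copy in NCI-H358/NCI-H23) measured with CCK-8 after treatment across 20 μM–1.02 nM; inhibition expressed relative to vehicle-treated wells after subtracting no-cell background.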

KRAS(G12C) = KRAS(G12C) (Homo sapiens, UniProt P01116, G12C); assay: KRAS(G12C)/SOS1 homogeneous time-resolved fluorescence (HTRF) assay; set-up: purchased Cisbio 63ADK000CB16PEG; settings: absence of GTP, 4° C. for 3 hr, read-out: KRAS (G12C) binding
Sequence of KRAS(G12C) (P01116 1-188 isoform P01116-2 G12C): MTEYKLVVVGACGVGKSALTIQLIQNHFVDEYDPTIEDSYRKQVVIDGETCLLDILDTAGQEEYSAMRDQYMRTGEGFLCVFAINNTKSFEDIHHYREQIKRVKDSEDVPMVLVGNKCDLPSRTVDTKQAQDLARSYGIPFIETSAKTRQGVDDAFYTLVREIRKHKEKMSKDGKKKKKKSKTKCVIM
Summary of the method: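 Three-hour incubation at 4 °C of 3-fold compound dilutions (lowest 1.02 nM) with KRAS(G12C), SOS1 and detection reagents, GTP absent. Disruption of the KRAS(G12C)/SOS1 complex detected by time-resolved fluorescence.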

| Compound | IC50 (HSP90a protein) [nM] | EC50 [1] [nM] | IC50 (KRAS(G12C)) [nM] |
| --- | --- | --- | --- |
| C=CC(=O)N1CCN(c2nc(OC[C@@H]3C[C@H](NC(=O)C4CCN(C(=O)C5CCN(Cc6ccc(-n7c(O)nnc7-c7cc(C(C)C)c(O)cc7O)cc6)CC5)CC4)CN3C)nc3c2CCN(c2cccc4cccc(Cl)c24)C3)C[C@@H]1CC#N [Compound 309, N-[(3S,5S)-5-({[7-(8-chloronaphthalen-1-yl)-4-[(3S)-3-(cyanomethyl)-4-(prop-2-enoyl)piperazin-1-yl]-5H,6H,8H-pyrido[3,4-d]pyrimidin-2-yl]oxy}methyl)-1-methylpyrrolidin-3-yl]-1-[1-({4-[3-(2,4-dihydroxy-5-isopropylphenyl)-5-hydroxy-1,2,4-triazol-4-yl]phenyl}methyl)piperidine-4-carbonyl]piperidine-4-carboxamide] | < 100 | 100 to 1000 | < 100 |
| C=CC(=O)N1CCN(c2nc(OCC3CCC(CNCc4ccc(-n5c(O)nnc5-c5cc(CC)c(O)cc5O)cc4)N3)nc3c2CCN(c2cccc4cccc(Cl)c24)C3)C[C@@H]1CC#N (stereo partly drawn) [Compound 299, 2-((2S)-1-acryloyl-4-(7-(8-chloronaphthalen-1-yl)-2-((5-(((4-(3-(5-ethyl-2,4-dihydroxyphenyl)-5-hydroxy-4H-1,2,4-triazol-4-yl)benzyl)amino)methyl)pyrrolidin-2-yl)methoxy)-5,6,7,8-tetrahydropyrido[3,4-d]pyrimidin-4-yl)piperazin-2-yl)acetonitrile] | < 100 | > 1000 | 100 to 1000 |
| C=CC(=O)N1CCN(c2nc(OC[C@@H]3CC[C@H](C(=O)N4CCN(Cc5ccc(-n6c(O)nnc6-c6cc(C)c(O)cc6O)cc5)CC4)N3C)nc3c2CCN(c2cccc4cccc(Cl)c24)C3)C[C@@H]1CC#N [Compound 325, 2-[(2S)-4-[7-(8-chloronaphthalen-1-yl)-2-{[(2S,5R)-5-[4-({4-[3-(2,4-dihydroxy-5-methylphenyl)-5-hydroxy-1,2,4-triazol-4-yl]phenyl}methyl)piperazine-1-carbonyl]-1-methylpyrrolidin-2-yl]methoxy}-5H,6H,8H-pyrido[3,4-d]pyrimidin-4-yl]-1-(prop-2-enoyl)piperazin-2-yl]acetonitrile] | < 100 | > 1000 | < 100 |
| C=CC(=O)N1CCN(c2nc(OC[C@@H]3C[C@H](N4CCC(C(=O)NCCOCCOc5ccc(-n6c(O)nnc6-c6cc(CC)c(O)cc6O)cc5)CC4)CN3C)nc3c2CCN(c2cccc4cccc(Cl)c24)C3)C[C@@H]1CC#N [Compound 335, 1-[(3S,5S)-5-({[7-(8-chloronaphthalen-1-yl)-4-[(3S)-3-(cyanomethyl)-4-(prop-2-enoyl)piperazin-1-yl]-5H,6H,8H-pyrido[3,4-d]pyrimidin-2-yl]oxy}methyl)-1-methylpyrrolidin-3-yl]-N-[2-(2-{4-[3-(5-ethyl-2,4-dihydroxyphenyl)-5-hydroxy-1,2,4-tri-azol-4-yl]phenoxy}ethoxy)ethyl]piperidine-4-carboxamide] | < 100 | > 1000 | < 100 |
